Test results as given in patent US8148407B2, “Compounds derived from 5-thioxylose and their use in therapeutics” (Laboratories Fournier S.A., priority 2005, dated 2012).

Key:
venous thrombosis = test: Venous thrombosis test in the rat (Wessler venous stasis under hypercoagulation with factor Xa), oral administration; assay type: in vivo; conditions: Wistar male rats
Method: The antithrombotic activity of the compounds according to the invention was studied in vivo in the rat by means of a test that reproduces a venous thrombosis. The venous thrombosis was induced according to the protocol described in Thromb. Haemost., 1992, 67(1), 176-179. The oral activity was studied according to the following operating protocol: The experiments are performed on non-fasted Wistar male rats weighing 250 to 280 g, divided into groups of 10 animals each. The test products are administered orally (tubage) dissolved or suspended in a solution of methyl cellulose (0.5% in water). […] To induce this thrombosis, a venous stasis is created under hypercoagulation according to the technique described by WESSLER (J. Applied Physiol., 1959, 943-946), the hypercoagulating agent used being a solution of activated factor X (Xa) having a concentration of 7.5 nKat/kg, supplied by Biogenic (Montpellier). The venous stasis is effected exactly 10 seconds after injection of the hypercoagulating agent. The activity of the test compounds was checked at different doses after they had been administered.

[1] = Rattus norvegicus, dose 6 mg/kg, thrombosis induced 2 h after administration, read-out: Oral activity: Activity (percentage inhibition of thrombus formation)
[2] = dose 6 mg/kg, thrombosis induced 2 h after administration

Row | Structure (SMILES) | inhibition in vivo at 6 mg/kg (venous thrombosis; [1]) [%] | melting point [°C] | further results
1 | O[C@@H]1[C@@H](O)[C@H](Oc2cncc(-c3cccc(F)c3)c2)SC[C@H]1O [Example 123, 5-(3-fluorophenyl)-3-pyridinyl 5-thio-β-D-xylopyranoside] | 97 | – | –
2 | CC(=O)c1ncccc1O[C@@H]1SC[C@@H](O)[C@H](O)[C@H]1O [Example 4, 2-acetyl-3-pyridinyl 5-thio-β-D-xylopyranoside] | 96 | 123 | –
3 | COc1ccc(-c2ccncc2O[C@@H]2SC[C@@H](O)[C@H](O)[C@H]2O)cc1 [Example 101, 4-(4-methoxyphenyl)-3-pyridinyl 5-thio-β-D-xylopyranoside] | 97 | 228 | –
4 | N#Cc1ccc(C(=O)c2ncccc2O[C@@H]2SC[C@@H](O)[C@H](O)[C@H]2O)cc1 [Example 6, [2-(4-cyanobenzoyl)-3-pyridinyl]5-thio-β-D-xylopyranoside] | – | – | Oral activity: Activity (percentage inhibition of thrombus formation) (venous thrombosis; [2]): 61%; Oral activity: Activity (percentage inhibition of thrombus formation) (venous thrombosis; dose 6 mg/kg, thrombosis induced 8 h after administration): 26%
5 | O[C@@H]1[C@@H](O)[C@H](Oc2cncc(-c3ccc(F)c(Cl)c3)c2)SC[C@H]1O [Example 131, 5-(3-chloro-4-fluorophenyl)-3-pyridinyl 5-thio-β-D-xylopyranoside] | 80 | – | –
6 | Cc1cc(-c2cncc(O[C@@H]3SC[C@@H](O)[C@H](O)[C@H]3O)c2)ccc1F [Example 59, 5-(4-fluoro-3-methylphenyl)-3-pyridinyl 5-thio-β-D-xylopyranoside] | 82 | 197 | –
7 | Cc1ccc(-c2ccc(O[C@@H]3SC[C@@H](O)[C@H](O)[C@H]3O)cn2)cc1 [Example 99, 6-(4-methylphenyl)-3-pyridinyl 5-thio-β-D-xylopyranoside] | 72 | 191 | –
8 | CC(=O)c1ccc(O[C@@H]2SC[C@@H](O)[C@H](O)[C@H]2O)cn1 [Example 2, 6-acetyl-3-pyridinyl 5-thio-β-D-xylopyranoside] | 63 | – | –
9 | O[C@@H]1[C@@H](O)[C@H](Oc2cncc(-c3ccccc3F)c2)SC[C@H]1O [Example 126, 5-(2-fluorophenyl)-3-pyridinyl 5-thio-β-D-xylopyranoside] | 91 | – | –
10 | O[C@@H]1[C@@H](O)[C@H](Oc2cncc(-c3ccc(F)cc3Cl)c2)SC[C@H]1O [Example 89, 5-(2-chloro-4-fluorophenyl)-3-pyridinyl 5-thio-β-D-xylopyranoside] | 100 | 208 to 211 | –
11 | Cc1cc(F)ccc1-c1cncc(O[C@@H]2SC[C@@H](O)[C@H](O)[C@H]2O)c1 [Example 61, 5-(4-fluoro-2-methylphenyl)-3-pyridinyl 5-thio-β-D-xylopyranoside] | 98 | 217 | –
12 | CC(=O)O[C@@H]1[C@@H](OC(C)=O)[C@H](OC(C)=O)CS[C@H]1Oc1cncc(-c2ccc(C#N)cc2)c1 [Example 15, [5-(4-cyanophenyl)-3-pyridinyl]2,3,4-tri-O-acetyl-5-thio-β-D-xylopyranoside] | – | – | Oral activity: Activity (percentage inhibition of thrombus formation) (venous thrombosis; dose 8.2 mg/kg, thrombosis induced 2 h after administration): 84%
13 | N#Cc1ccc(-c2ncccc2O[C@@H]2SC[C@@H](O)[C@H](O)[C@H]2O)cc1 [Example 12, [2-(4-cyanophenyl)-3-pyridinyl]5-thio-β-D-xylopyranoside] | – | – | Oral activity: Activity (percentage inhibition of thrombus formation) (venous thrombosis; [2]): 14%
14 | O[C@@H]1[C@@H](O)[C@H](Oc2cncc(-c3ccccc3)c2)SC[C@H]1O [Example 14, 5-phenyl-3-pyridinyl 5-thio-β-D-xylopyranoside] | 50 | – | –
15 | O=C(c1ccc(C(F)(F)F)cc1)c1ccc(O[C@@H]2SC[C@@H](O)[C@H](O)[C@H]2O)cn1 [Example 8, [6-[4-(trifluoromethyl)benzoyl]-3-pyridinyl]5-thio-β-D-xylopyranoside] | – | – | Oral activity: Activity (percentage inhibition of thrombus formation) (venous thrombosis; [2]): 46%
16 | COc1ccc(-c2cncc(O[C@@H]3SC[C@@H](O)[C@H](O)[C@H]3O)c2)cc1F [Example 103, 5-(3-fluoro-4-methoxyphenyl)-3-pyridinyl 5-thio-β-D-xylopyranoside] | 100 | 200 | –
17 | CC(=O)O[C@@H]1[C@@H](OC(C)=O)[C@H](OC(C)=O)CS[C@H]1Oc1cccnc1C(C)=O [Example 3, 2-acetyl-3-pyridinyl 2,3,4-tri-O-acetyl-5-thio-β-D-xylopyranoside] | – | – | inhibition in vivo at 8.6 mg/kg (venous thrombosis; Rattus norvegicus, dose 8.6 mg/kg, thrombosis induced 2 h after administration, read-out: Oral activity: Activity (percentage inhibition of thrombus formation)): 92%
18 | CC(C)Oc1ccc(-c2cncc(O[C@@H]3SC[C@@H](O)[C@H](O)[C@H]3O)c2)cc1 [Example 69, 5-[4-(1-methylethoxy)phenyl]-3-pyridinyl 5-thio-β-D-xylopyranoside] | – | 158 | –
19 | O[C@@H]1[C@@H](O)[C@H](Oc2ccc(-c3ccc(OC(F)(F)F)cc3)nc2)SC[C@H]1O [Example 125, 6-[4-(trifluoromethoxy)phenyl]-3-pyridinyl 5-thio-β-D-xylopyranoside] | – | 184 to 186 | –
20 | N#Cc1ccc(-c2cncc(O[C@@H]3SC[C@@H](O)[C@H](O)[C@H]3O)c2)cc1C#N [Example 156, 5-(3,4-dicyanophenyl)-3-pyridinyl 5-thio-β-D-xylopyranoside] | – | 192 | –
21 | COc1cc(F)c(-c2cncc(O[C@@H]3SC[C@@H](O)[C@H](O)[C@H]3O)c2)c(F)c1 [Example 81, 5-(2,6-difluoro-4-methoxyphenyl)-3-pyridinyl 5-thio-β-D-xylopyranoside] | – | 200 | –
22 | COc1ccc(-c2ccc(O[C@@H]3SC[C@@H](O)[C@H](O)[C@H]3O)cn2)cc1 [Example 93, 6-(4-methoxyphenyl)-3-pyridinyl 5-thio-β-D-xylopyranoside] | – | 164 | –
